Experimental data from patent US5140023A, “Azatetracycle compounds” (G. D. Searle & Co., priority 1991, dated 1992).
Where a name gives a salt, the structure may show the parent alone.

Tests used:
5-HT3 = target: T1, 5-HT3 (Canis lupus familiaris, UniProt Q1HHV2); test: Antiemetic activity against cisplatin-induced emesis in beagle dogs; assay type: in vivo; conditions: for ED50: dog, iv, i.v. 30 min before and 2 h after cisplatin 3 mg/kg i.v., emetic episodes counted 5 h, read-out: ID50 (50% inhibition of the number of emetic episodes)
T1 construct: from tissue; host or cells: living beagle dogs (in vivo, i.v. dosing); endogenous receptor
T1 sequence (Q1HHV2 24-483): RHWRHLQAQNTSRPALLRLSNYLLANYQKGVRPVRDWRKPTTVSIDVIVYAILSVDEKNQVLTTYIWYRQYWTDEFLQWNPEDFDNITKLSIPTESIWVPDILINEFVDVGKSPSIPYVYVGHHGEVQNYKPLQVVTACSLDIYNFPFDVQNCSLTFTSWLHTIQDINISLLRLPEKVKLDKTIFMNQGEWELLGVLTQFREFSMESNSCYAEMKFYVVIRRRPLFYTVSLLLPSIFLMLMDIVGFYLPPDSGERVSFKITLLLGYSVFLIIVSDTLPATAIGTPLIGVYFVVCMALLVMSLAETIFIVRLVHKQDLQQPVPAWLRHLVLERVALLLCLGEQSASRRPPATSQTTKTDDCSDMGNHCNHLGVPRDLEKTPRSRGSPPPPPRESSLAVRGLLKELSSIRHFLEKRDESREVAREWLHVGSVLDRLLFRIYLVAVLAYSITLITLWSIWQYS
Procedure: 5-HT3 antagonism can be determined in a model of emesis induced by the chemotherapeutic agent cisplatin as described herein.
Antiemetic activity of test compound against cisplatin was determined in beagle dogs. Dogs are pretreated I.V. with a test compound dissolved in DMSO thirty minutes before administration of cisplatin 3 mg/kg.i.v. with a second dose of compounds given i.v. two hours after cisplatin administration. Emetic episodes are counted for 5 hours following cisplatin administration. The latency for first emesis and the number of emetic episodes for test compounds are compared with results for control treatment (vehicle).
Per cent inhibition of emesis for each animal is determined by the following formula: [formula] A mean inhibitory dose (ID50) which results in 50% inhibition of the number of emetic episodes is determined.

gastric emptying = test: Rat gastric emptying of a test meal (prokinetic activity); assay type: in vivo, rat (male Charles River, Crl: COBS, CD (SD) BR); conditions: 30 min before test meal, rats sacrificed 60 min after meal
From the text: Alternatively, the compounds of formula I wherein p is 1, A is NH and B is NH or 0 can be prepared by treating ArNH2 (37) with compounds of formula 38 (an isocyanate or activated carbonyl derivative of azatetracycles 11, 26, 32 or 35). L1 is as described above. […] Prokinetic activity of a compound can be determined by measuring the enhancement of gastric emptying of a meal in a rat model to which the compound has been administered. This method for determining prokinetic activity of a compound has been described by Droppleman, et al, J. Pharmacol. and Methods 4: 227-230 (1980).
A test meal for measuring gastric emptying in rats was prepared. Ten grams of methylcellulose (2% solution=15 centipoises; Aldrich Chemical Company, Milwaukee, Wis.) was added to 200ml of cold water and mixed at 20,000 rpm in a Waring blender to insure dispersion and hydration of the methylcellulose. In addition, two beef bouillon cubes (Wyler's, Columbus, Ohio) dissolved in 100ml of warm water was added to the mixture, followed by 16g of casein (Hammersten, Schwartz/Mann, Orangeburg, N.Y.), 8g of powdered confectioners sugar and 8g of cornstarch. The ingredients were mixed for two minutes at 20,000 rpm and the resultant test meal was refrigerated for 48 hours to allow trapped air to escape. Male Charles River Rats, Crl: COBS, CD (SD) BR Strain, 180-200g body weight, were used in groups of six animals. The animals were food deprived for 24 hours prior to the experiment with access to water ad libitum. The compounds to be evaluated were prepared in a 0.5% aqueous methylcellulose solution. If insoluble, the mixture was homogenized for two minutes at 5500 rpm using a Try R-Stir-R. The compounds were injected intraperitoneally at a volume of 5 ml/kg, 30 minutes before the test meal, (3.0ml/rat i.g.). Control animals received only the vehicle. Sixty minutes after the test meal, the rats were sacrificed by cervical dislocation. The stomachs were removed intact and weighed. The stomachs were kept opened, gently rinsed with tap water, blotted dry with paper towelling, and the empty stomach weighed. The difference between the weight of the full and empty stomach is indicative of the amount of meal remaining in the stomach. The amount of meal remaining in the stomach was subtracted from the weight of 3ml of the test meal to determine the amount of food emptied from the stomach during the test. Weight of the test meal was determined by weighing three samples (3ml) at the beginning and three samples at the end of each experiment and calculating the mean. The mean and standard error of the amount of meal emptied were calculated.
The results of following the protocol and comparing representative compounds herein to known prokinetic agents, metoclopramide and cisapride, are shown in Table III.

Compound	ED50 (5-HT3)	% increase in gastric emptying (gastric emptying; 1.0 mg/kg ip)	% increase in gastric emptying (gastric emptying; 3.0 mg/kg ip)	% increase in gastric emptying (gastric emptying; 10.0 mg/kg ip)	also measured
COc1cc(N)c(Cl)cc1C(=O)N[C@H]1[C@H]2C[C@@H]3CN(C2)C[C@@H]31 (relative stereo) [Example 12, 2-methoxy-4-amino-5-chloro-N-(hexahydro-1H-2,5B-methano-3aα, 6aα-cyclopenta[c]pyrrol-4α-yl)benzamidehydrochloride]	0.03 mg/kg	45.3%			% increase in gastric emptying (gastric emptying; 0.001 mg/kg ip): -5.8%; % increase in gastric emptying (gastric emptying; 0.01 mg/kg ip): 2.0%; % increase in gastric emptying (gastric emptying; 0.03 mg/kg ip): 16.4%; % increase in gastric emptying (gastric emptying; 0.1 mg/kg ip): 31.3%; % increase in gastric emptying (gastric emptying; 0.3 mg/kg ip): 32.1%
Cn1nc(C(=O)N[C@H]2[C@H]3C[C@@H]4CN(C3)C[C@@H]42)c2ccccc21 (relative stereo) [Example 27, (±)-N-(hexahydro-1H-2,5β-methano-3aα,6aα-cyclopenta[c]pyrrol-4α-yl)-1-methyl-1H-indazole-3-carboxamide, hydrochloride]	0.1 mg/kg				% inhibition (of emesis) (5-HT3; cisplatin 3 mg/kg i.v., printed in parentheses under 0.10 mg/kg iv): 72%
COc1cc(N)c(Cl)cc1C(=O)NC1CCN2CCCC1C2 (centres unmarked) [BRL-24924]	0.1 mg/kg	29.8%	34.2%	35.2%	
COc1cc(N)c(Cl)cc1C(=O)NC1CCN(CCCOc2ccc(F)cc2)CC1OC (centres unmarked) [Cisapride, cisapride]	0.6 mg/kg	9.8%	15.4%	25.0%	
CN1[C@@H]2CC[C@H]1C[C@@H](OC(=O)c1c[nH]c3ccccc13)C2 [ICS 205-930]	0.01 mg/kg				
CCN(CC)CCNC(=O)c1cc(Cl)c(N)cc1OC [METOCLOPRAMIDE, metoclopramide]		2.6%	11.2%	34.1%	
COc1cc(N)c(Cl)cc1C(=O)NC1CN2CCC1CC2 (centres unmarked) [ZACOPRIDE]		11.8%	9.3%	18.5%	% increase in gastric emptying (gastric emptying; 0.3 mg/kg ip): 1.4%; % increase in gastric emptying (gastric emptying; 30.0 mg/kg ip): 6.3%
